Experimental data from patent publication US20200190202A1, “Reprogramming of CD8 T Cells with CXCL12 Signaling Inhibitors” (priority 2017, published 2020).
Read-outs that look alike come from different tables or passages of the source.

Tests used:
[1] = test system: 40 L mouse mesothelioma; assay: Intraperitoneal malignant mesothelioma model, tumor growth and survival, 40 L; type: in vivo; settings: 40 L model; compared to saline control
[2] = test system: AE17 mouse mesothelioma; assay: Intraperitoneal malignant mesothelioma model, tumor growth and survival, AE17; type: in vivo; settings: compared to saline control
[3] = test system: GFP-Foxp3 expressing CD4+ splenocytes (Treg cells); settings: AMD3100 5 μg/ml, 24 hours
[4] = test system: T cells in spleens, lymph nodes and tumors of AE17 tumor-bearing mice; assay: Immune profiling by flow cytometry, AE17 tumor-bearing mice; type: in vivo, mouse; settings: for proportion of CD8+ T cells in total live cells: compared to saline control
[5] = test system: CD8+ T cells of 40 L tumor-bearing mice; assay: Ex-vivo restimulation with recombinant mesothelin and intracellular IFN-γ detection, 40 L mice; type: in vivo, mouse; settings: splenic CD8+ T cells; 40 L model; compared to saline
[6] = test system: ovarian cancer; settings: monotherapy in ovarian tumor-bearing mice; cited from earlier work
[7] = test system: T cells in spleens and tumors of 40 L tumor-bearing mice; assay: Immune profiling by flow cytometry, 40 L tumor-bearing mice; type: in vivo, mouse; settings: for proportion of CD8+ T cells in total live cells: compared to saline control
[8] = 0.01-0.02 mg/kg subcutaneously twice daily for 6 months; cited from earlier work
[9] = test system: CD8+ T cells of AE17 tumor-bearing mice; assay: Ex-vivo restimulation with recombinant mesothelin and intracellular IFN-γ detection, AE17 mice; type: in vivo, mouse; settings: AE17 model, compared to saline
[10] = lymph nodes, AE17 model, compared to saline
[11] = tumors, AE17 model, compared to saline
[12] = tumors, 40 L model, compared to saline

c1cc(CN2CCCNCCNCCCNCC2)ccc1CN1CCCNCCNCCCNCC1 [AMD3100, plerixafor]
animal survival [1]: only modest benefit
animal survival [2]: only modest benefit
conversion of Foxp3+ CD25− Treg into IL-2+ CD40L+ cells ([3]; anti-CD3/CD28 antibodies 1 μg/ml, P=0.0015): converted more
ratio of the proportion of CD25− cells to CD25+ cells in the Foxp3+ CD4+ population ([3]; anti-CD3/CD28 antibodies 1 μg/ml, P=0.0017): significantly increased
ratio of the proportion of CD25− cells to CD25+ cells in the Foxp3+ CD4+ population ([3]; no anti-CD3/CD28 stimulation): did not change
IL-2+ CD40L+ cells among the Foxp3+ CD25− Treg population ([4]; lymph nodes of AE17 mice): significantly more
ratio of CD25− cells to CD25+ cells within the Foxp3+ population ([4]; lymph nodes, AE17 model): significantly increased
cell ratio of CD8+ T cells to Treg cells [4, 10]: significantly increased
proportion of PD-1-expressing CD8+ T cells [4, 10]: significantly fewer
proportion of CD8+ T cells in total live cells ([4]; lymph nodes, AE17 model): did not increase
Treg in the lymph nodes ([4]; lymph nodes, AE17 tumor-bearing mice): generally reduced
proportion of PD-1-expressing CD8+ T cells ([4]; spleens, AE17 model, compared to saline): significantly fewer
proportion of CD8+ T cells in total live cells ([4]; spleens, AE17 model): did not increase
proportion of PD-1-expressing CD8+ T cells [4, 11]: significantly fewer
proportions of Treg [4, 11]: significantly decreased
ratio of CD8+ T cells to Treg [4, 11]: increased
proportion of CD8+ T cells in total live cells ([4]; tumors, AE17 model): did not increase
mesothelin-specific IFN-γ expression in CD8+ T cells [5]: did not enhance
intratumoral Treg cells [6]: selective reduction
survival [6]: survival advantage
proportion of PD-1-expressing CD8+ T cells ([7]; spleens, 40 L model, compared to saline): significantly fewer
proportion of CD8+ T cells in total live cells ([7]; spleens, 40 L model): did not increase
proportions of Treg cells ([7]; spleens, 40 L tumor-bearing mice): did not alter
IL-2+ CD40L+ cells among the Foxp3+ CD25− Treg population ([7]; tumors of 40 L mice): significantly more
ratio of CD25− cells to CD25+ cells within the Foxp3+ population ([7]; tumors of 40 L mice): significantly increased
proportion of PD-1-expressing CD8+ T cells [7, 12]: significantly fewer
proportions of Treg [7, 12]: significantly decreased
ratio of CD8+ T cells to Treg [7, 12]: increased
proportion of CD8+ T cells in total live cells ([7]; tumors, 40 L model): did not increase
safety of long-term, low-dose treatment [8]: safety
mesothelin-specific IFN-γ expression in CD8+ T cells ([9]; lymph node CD8+ T cells): did not enhance
mesothelin-specific IFN-γ expression in CD8+ T cells ([9]; splenic CD8+ T cells): did not enhance
